Data: patent US11591336B2 (Relay Therapeutics, Inc., priority 2017, dated 2023)

biological target: SHP2 (Homo sapiens (Human), UniProt Q06124); experiment: SHP2 Allosteric Inhibition Assay (DiFMUP prompt fluorescence); format: biochemical; details: 0.25 nM SHP2 activated with 0.5 μM peptide IRS1_pY1172(dPEG8)pY1222; substrate DiFMUP 100 μM; 25° C.
Sequence (Q06124 whole entry): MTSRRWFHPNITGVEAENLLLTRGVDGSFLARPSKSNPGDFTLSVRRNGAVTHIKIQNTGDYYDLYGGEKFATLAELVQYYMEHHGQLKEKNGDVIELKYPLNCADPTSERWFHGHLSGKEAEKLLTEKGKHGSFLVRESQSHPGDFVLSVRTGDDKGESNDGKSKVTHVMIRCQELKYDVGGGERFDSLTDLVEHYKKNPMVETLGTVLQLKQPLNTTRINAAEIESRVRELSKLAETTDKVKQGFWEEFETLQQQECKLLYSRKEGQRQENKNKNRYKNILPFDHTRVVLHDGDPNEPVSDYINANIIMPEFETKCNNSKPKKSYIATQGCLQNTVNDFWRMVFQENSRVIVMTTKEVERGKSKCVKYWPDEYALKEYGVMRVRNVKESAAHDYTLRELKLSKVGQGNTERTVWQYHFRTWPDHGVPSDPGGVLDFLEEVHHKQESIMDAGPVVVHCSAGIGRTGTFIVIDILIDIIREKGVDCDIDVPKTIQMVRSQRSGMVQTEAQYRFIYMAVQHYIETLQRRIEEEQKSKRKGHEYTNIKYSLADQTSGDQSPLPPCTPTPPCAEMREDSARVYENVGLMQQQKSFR

Compound | IC50 [µM]
CNC(=O)CN1CCN(c2n[nH]c3nc(N4CCC5(CC4)CO[C@@H](C)[C@H]5N)cnc23)c2ccc(C#N)cc21 [Compound 399] | < 1
C[C@@H]1OCC2(CCN(c3cnc4c(N5CCCc6c([C@H]7CCOC7)cccc65)n[nH]c4n3)CC2)[C@@H]1N [Compound 400] | < 1
C[C@@H]1OCC2(CCN(c3cnc4c(N5CCCc6c([C@@H]7CCOC7)cccc65)n[nH]c4n3)CC2)[C@@H]1N [Compound 401] | < 1
C[C@@H]1OCC2(CCN(c3cnc4c(N5CCN([C@H]6CCOC6)c6cc(C#N)ccc65)n[nH]c4n3)CC2)[C@@H]1N [Compound 402] | < 1
C[C@@H]1OCC2(CCN(c3cnc4c(N5CCN([C@@H]6CCOC6)c6cc(C#N)ccc65)n[nH]c4n3)CC2)[C@@H]1N [Compound 403] | < 1
CNC(=O)c1nccc2c1CCCN2c1n[nH]c2nc(N3CCC4(CC3)CO[C@@H](C)[C@H]4N)cnc12 [Compound 404, 1-{6-[(3S,4S)-4-amino-3-methyl-2-oxa-8-azaspiro[4.5]decan-8-yl]-1H-pyrazolo[3,4-b]pyrazin-3-yl}-N-methyl-1,2,3,4-tetrahydro-1,6-naphthyridine-5-carboxamide] | < 1
CCN1CCN(c2n[nH]c3nc(N4CCC5(CC4)CO[C@@H](C)[C@H]5N)cnc23)c2ccc(C#N)cc21 [Compound 405] | < 1
COCCN1CCN(c2n[nH]c3nc(N4CCC5(CC4)CO[C@@H](C)[C@H]5N)cnc23)c2ccc(C#N)cc21 [Compound 406] | < 1
Cc1nnc(-c2ccc3c(n2)CCCN3c2n[nH]c3nc(N4CCC5(CC4)CO[C@@H](C)[C@H]5N)cnc23)s1 [Compound 407] | < 1
C[C@@H]1OCC2(CCN(c3cnc4c(N5CCN(CCS(C)(=O)=O)c6cc(C#N)ccc65)n[nH]c4n3)CC2)[C@@H]1N [Compound 408] | < 1
CC(C)N1CCN(c2n[nH]c3nc(N4CCC5(CC4)CO[C@@H](C)[C@H]5N)cnc23)c2ccc(C#N)cc21 [Compound 409] | < 1
C#Cc1ccc2c(n1)CCCN2c1n[nH]c2nc(N3CCC4(CC3)CO[C@@H](C)[C@H]4N)cnc12 [Compound 410] | < 1
C[C@@H]1OCC2(CCN(c3cnc4c(N5CCN([C@H]6C[C@H](O)C6)c6cc(C#N)ccc65)n[nH]c4n3)CC2)[C@@H]1N [Compound 411] | < 1
C[C@@H]1OCC2(CCN(c3cnc4c(N5CCN([C@H]6C[C@@H](O)C6)c6cc(C#N)ccc65)n[nH]c4n3)CC2)[C@@H]1N [Compound 412] | < 1
C[C@@H]1OCC2(CCN(c3cnc4c(N5CCN(C)c6nnccc65)n[nH]c4n3)CC2)[C@@H]1N [Compound 413] | < 1
C[C@@H]1OCC2(CCN(c3cnc4c(N5CCN(C)c6cnncc65)n[nH]c4n3)CC2)[C@@H]1N [Compound 414] | 1 to 10
C[C@@H]1OCC2(CCN(c3cnc4c(N5CCN(C)c6cc(-c7nccs7)ccc65)n[nH]c4n3)CC2)[C@@H]1N [Compound 415] | < 1
C[C@@H]1OCC2(CCN(c3cnc4c(N5CCCc6c5ccnc6S(C)(=O)=O)n[nH]c4n3)CC2)[C@@H]1N [Compound 416] | < 1
C[C@@H]1OCC2(CCN(c3cnc4c(N5CCCc6c(N=S(C)(C)=O)cccc65)n[nH]c4n3)CC2)[C@@H]1N [Compound 418] | < 1
CN=[S@](C)(=O)c1cccc2c1CCCN2c1n[nH]c2nc(N3CCC4(CC3)CO[C@@H](C)[C@H]4N)cnc12 [Compound 419] | < 1
CN=[S@@](C)(=O)c1cccc2c1CCCN2c1n[nH]c2nc(N3CCC4(CC3)CO[C@@H](C)[C@H]4N)cnc12 [Compound 420] | < 1
C[C@@H]1OCC2(CCN(c3cnc4c(N5CCCc6c5cccc6[S@@](C)(=N)=O)n[nH]c4n3)CC2)[C@@H]1N [Compound 421] | < 1
C[C@@H]1OCC2(CCN(c3cnc4c(N5CCCc6c5cccc6[S@](C)(=N)=O)n[nH]c4n3)CC2)[C@@H]1N [Compound 422] | < 1
